Data reported in patent EP2229935A1, “Peptide derivatives or pharmaceutically acceptable salts thereof, method for producing the same, use of said derivatives and pharmaceutical composition” (Nebolsin, Vladimir Evgenievich, priority 1997, dated 1999).
Marks after values point to notes of the source that are not given here.

Assays:
mongrel female rats = test: Hepatoprotective activity: subchronic liver lesion (hepatitis) with CCl4; type: in vivo; conditions: for Cholesterol level, mg/100 ml VLDL-CS / Cholesterol level, mg/100 ml LDL-CS / Cholesterol level, mg/100 ml HDL-CS / Cholesterol level, mg/100 ml total-CS / TG level, mg/100ml / ALT, nM/dl / AST, nM/dl: blood serum; for Cholesterol level, mg/100 ml VLDL-CS: TG/5; for Cholesterol level, mg/100 ml LDL-CS: calculated by formula; for ALT, nM/dl / AST, nM/dl: oral 8 days
Description: Hepatoprotective properties of the compounds were studied on a model of subchronic liver lesion (hepatitis) with carbon quadrichloride.
70 mongrel female rats with initial body mass 190-200 g fed a standard vivarium ration, were used in experiment. Animals were divided into 7 groups (10 rats each): • Group 1 - control one; during the first four days of experiment animals were subcutaneously injected 0.2 ml vaseline oil; • Group 2 - during the first four days animals were subcutaneously injected 50% CCl4 solution in vaseline oil at a rate of 0.1 ml per 100 g body mass; • Group 3 - Legalon in a starch gel was administered orally for 8 days at a dose 30 mg/kg against the background of CCl4 administration; […] , resepectively, was administered in a way similar to group III; […] , resepectively, was administered in a way similar to group III.
The test compounds and Legalon were administered to animals 1 hour prior to CCl4 administration. 24 hours after the last administration of the drugs, animals were decapitated.
Activity of blood serum transaminases ALT and AST was assessed using the conventional Frenkel-Rightman method [Laboratory examination methods in the clinic. Ed. by Menshikov V.V. Moscow, Meditsina publishers (1969), 302 pp.].
The published method [Rodionova L.P. Modification of blood serum trigyceride level determination method. Laboratomoye delo (Laboratory Matter) (1980), No 5, pp. 297-299] was used to determine blood serum TG level.
Blood serum LP final product MDA was determined using the published method [Korobeinikova E.N. Modification of lipid peroxydation product determination in reaction with thiobarbituric acid. Laboratomoye delo (Laboratory Matter) (1989), No 7, pp. 8-10]. Concentration of TBA-active products was calculated using regression equation: C = 0.21 + 0.26D, [formula] where C - concentration of TBA-active products (in nM MDA per 1 ml of serum), D - index D535 -D580 (in optic density units).
Total hepatic lipids were extracted using the modified Folch method [Cates M. Technology of Lipidology. Moscow, Mir publishers (1975), pp. 74-76]. Quantative content of lipid fractions was assessed with thin layer chromatography method (TLC) using the system of solvents hexane:diethyl ether:acetic acid at ratio 80:20:2. Zones of individual lipid fractions were determined using 10% alcohol solution of phosphoromolyobdenic acid which following elution were spectrophotometrically analysed at 600 nm.
Hepatic MDA level was determined using the published method [Stalnaya I.D., Garishvili T.G. Malonic dialdehyde determination method using thiobarbituric acid. In: Modem methods in biochemistry. Moscow, Meditsina publishers (1977), pp. 66-69]. MDA quantity was calculated using molar extinction coefficient value of stained trimethynic complex formed by MDA with two TBA molecules: E = 1.56 × 10^5 (cm)^-1 × M^-1 [formula]

NK-cells = test: Activity of NK-cells after swimming stress (H^3-uridine release from YAC-1); type: in vivo, Balb male mice; conditions: 50 µg/kg orally four times
Description: (§1) Experiments were carried out on inbred Balb male mice with initial body mass 16-18 g. Each group included 12 animals. The model of swimming in warm water for 20 minutes was used to develop emotional-locomotory stress in animals. Stress development was estimated by the activity of natural killer lymphocytes (NK cells) and by functioning of the interferon system [Sukhikh T.G., Nossik N.N., Parshina O.V., Van'ko L.V., Meerson F.Z., Yershov F.I. Relationship between the natural cellular cytotoxicity system and the interferon system in immobilization stress. Bulletin of Experimental Biology (1984), ? , pp.593-595].
Activity of NK-cells was determined in the test of H^3-uridine release from the labelled target cells YAC-1 (mouse cellular lymphoma maintained by passages in vitro in suspension in the RPMI-1640 medium with 10% fetal serum). H^3-uridine (3-5 µC/cells/ml) was introduced into cellular suspension at concentration 1 miilion cells/ml on the 60th minute while shaking with 15 minute inerval and subsequent washing with the medium.
Splenocytes of mice which were obtained using the published method [Nossik N.N., Bopegamage S.A., Yershov F.I. Properties of interferons produced by different cell populations. Acta microbiologica Hungarica (1988), Vol. 35, Iss. 4, pp. 397-403] served as the source of NK-cells.
(§2) Animals were divided into four groups, each including 36 mice. • Group 1 - intact animals not subjected to stress and given normal saline (NS). • Group 2 - animals which ere subjected to stress effect and given NS. • Group 3 - animals which were subjected to stress effect and administered compound III. • Group 4 - animals which were subjected to stress effect and administered compound XLIV.
(§3) Activity of NK-cells and interferon state were dynamically determined in 4 hours following stress, in 24 hours and then by days 5, 7 and 10.

γ-interferon = γ-interferon production by splenocytes after stress; type: in vivo, Balb male mice; conditions: 50 µg/kg orally
Description: as §1
In studying interferon reaction of mouse splenocytes spleen cells were placed into incubation medium (the RPMI-1640 medium + 10% fetal calf serum), their concentration was brought to 1-3 x 10^8 cells/ml and they were incubated at 37°C for 24 hours. Newcasle disease virus (α-interferon induction) and FGA mitogen (γ-interferon induction) were used as intereferon inducers [Nossik N.N., Bopegamage S.A., Yershov F.I. Properties of interferons produced by different cell populations. Acta microbiologica Hungarica (1988), Vol. 35, Iss. 4, pp. 397-403].
as §2, §3

[1] = rats, CCl4 hepatitis, 0.05 µg/kg
[2] = rats, CCl4 hepatitis, 0.5 µg/kg
[3] = rats, CCl4 hepatitis, daily dose 0.05 mg/kg
[4] = rats, CCl4 hepatitis, daily dose 0.50 mg/kg
[5] = rats, CCl4 hepatitis, 0.05 mg/kg
[6] = rats, CCl4 hepatitis, 0.50 mg/kg
[7] = rats, CCl4 hepatitis, liver, 0.05 µg/kg
[8] = rats, CCl4 hepatitis, liver, 0.5 µg/kg

Molecule	Cholesterol level, mg/100 ml VLDL-CS (mongrel female rats; [1])	Cholesterol level, mg/100 ml VLDL-CS (mongrel female rats; [2])	Cholesterol level, mg/100 ml LDL-CS (mongrel female rats; [1])	Cholesterol level, mg/100 ml LDL-CS (mongrel female rats; [2])	Cholesterol level, mg/100 ml HDL-CS (mongrel female rats; [1]) [mg/100 ml]	Cholesterol level, mg/100 ml total-CS (mongrel female rats; [1]) [mg/100 ml]	TG level, mg/100ml (mongrel female rats; [1])	Cholesterol level, mg/100 ml HDL-CS (mongrel female rats; [2]) [mg/100 ml]	Cholesterol level, mg/100 ml total-CS (mongrel female rats; [2]) [mg/100 ml]	TG level, mg/100ml (mongrel female rats; [2])	ALT, nM/dl (mongrel female rats; [3]) [nM/dl]	AST, nM/dl (mongrel female rats; [3]) [nM/dl]	ALT, nM/dl (mongrel female rats; [4]) [nM/dl]	AST, nM/dl (mongrel female rats; [4]) [nM/dl]	Hepatic MDA, nM/l (mongrel female rats; [5]) [p<0.05 nM/l]	Serum MDA, nM/l (mongrel female rats; [5])	Hepatic MDA, nM/l (mongrel female rats; [6])	Serum MDA, nM/l (mongrel female rats; [6])	activity of NK-cells (NK-cells; 0.16 days after stress)	activity of NK-cells (NK-cells; 1 day after stress)	also measured
O=C(O)CCCC(=O)NCCc1c[nH]cn1 [compound III, N-GLUTARYLHISTAMINE]	17.7 ± 2.0 mg/100 ml	15.8 ± 1.0 p<0.05 mg/100 ml	19.6 ± 1.4 p<0.01 mg/100 ml	12.0 ± 0.6 mg/100 ml	52.3 ± 2.9	89.5 ± 3.8	88.0 ± 10.2 mg/100ml	59.3 ± 2.6	87.0 ± 2.6	78.6 ± 5.4 p<0.05 mg/100ml	624 ± 31	478 ± 26	609 ± 42	522 ± 33	5.00 ± 0.15	5.86 ± 0.70 nM/l	4.60 ± 0.52 p<0.05 nM/l	5.77 ± 0.15 p<0.05 nM/l	68.5 ± 0.99*^1,2	69.3 ± 1.81***^2	Lipid composition (in percent of total lipids) FCS (mongrel female rats; 5e-05 mg/kg): 20.3 ± 0.8 p<0.05% of total lipids; Lipid composition (in percent of total lipids) Phospholipids (mongrel female rats; 5e-05 mg/kg): 24.4 ± 0.7 p<0.05% of total lipids; Lipid composition (in percent of total lipids) Triglycerides (mongrel female rats; 5e-05 mg/kg): 35.5 ±1.1% of total lipids; Lipid composition (in percent of total lipids) FCS (mongrel female rats; 0.0005 mg/kg): 18.9 ± 0.7% of total lipids; Lipid composition (in percent of total lipids) Phospholipids (mongrel female rats; 0.0005 mg/kg): 23.8 ± 1.0 p<0.05% of total lipids; Lipid composition (in percent of total lipids) Triglycerides (mongrel female rats; 0.0005 mg/kg): 35.3 ± 0.7% of total lipids; activity of NK-cells (NK-cells; 5 days after stress): 79 ± 1.46; activity of NK-cells (NK-cells; 7 days after stress): 69.3 ± 4.85; activity of NK-cells (NK-cells; 10 days after stress): 77 ± 1.98; γ-interferon, U/ml (γ-interferon; 0 days after stress): 80 U/ml; γ-interferon, U/ml (γ-interferon; 0.16 days after stress): 80 U/ml; γ-interferon, U/ml (γ-interferon; 1 day after stress): 32 U/ml; γ-interferon, U/ml (γ-interferon; 5 days after stress): 32 U/ml; γ-interferon, U/ml (γ-interferon; 7 days after stress): 320 U/ml; γ-interferon, U/ml (γ-interferon; 10 days after stress): 80 U/ml
γ-L-glutamylhistamine [compound XLIV]	13.9 ± 1.1 p<0.01 mg/100 ml	12.4 ± 0.7 p<0.001 mg/100 ml	21.9 ± 1.1 p<0.001 mg/100 ml	17.1 ± 1.0 p<0.01 mg/100 ml	49.6 ± 2.5	85.3 ± 3.9	68.3 ± 5.7 p<0.001 mg/100ml	57.5 ± 5.1	87.2 ± 6.5	62.4 ± 3.9 p<0.001 mg/100ml	599 ± 18	470 ± 17	551 ± 28	475 ± 19	4.47 ± 0.45	5.82 ± 0.38 p<0.05 nM/l	3.51 ± 0.30 p<0.001 nM/l	4.72 ± 0.57 p<0.01 nM/l	69.5 ± 1.32**^2	61.5 ± 2.64*^1,2	Lipid composition (in percent of total lipids) FCS (mongrel female rats; [7]): 18.0 ± 0.8% of total lipids; Lipid composition (in percent of total lipids) Phospholipids (mongrel female rats; [7]): 22.8 ± 0.9% of total lipids; Lipid composition (in percent of total lipids) Triglycerides (mongrel female rats; [7]): 39.9 ± 1.7% of total lipids; Lipid composition (in percent of total lipids) FCS (mongrel female rats; [8]): 20.6 ± 0.8 p<0.05% of total lipids; Lipid composition (in percent of total lipids) Phospholipids (mongrel female rats; [8]): 26.1 ± 0.6 p<0.001% of total lipids; Lipid composition (in percent of total lipids) Triglycerides (mongrel female rats; [8]): 33.9 ± 1.0 p<0.05% of total lipids; activity of NK-cells (NK-cells; 5 days after stress): 71 ± 0.82; activity of NK-cells (NK-cells; 7 days after stress): 67.7 ± 3.95; activity of NK-cells (NK-cells; 10 days after stress): 77.5 ± 1.65; γ-interferon, U/ml (γ-interferon; 0 days after stress): 80 U/ml; γ-interferon, U/ml (γ-interferon; 0.16 days after stress): 20 U/ml; γ-interferon, U/ml (γ-interferon; 1 day after stress): 320 U/ml; γ-interferon, U/ml (γ-interferon; 5 days after stress): 40 U/ml; γ-interferon, U/ml (γ-interferon; 7 days after stress): 32 U/ml; γ-interferon, U/ml (γ-interferon; 10 days after stress): 32 U/ml
